pIC50: −log10 of the molar value. Entries after “also recorded” stand apart in the source; their conditions may differ.
Columns and labels:
[1] = tested on: OVCAR-5 cells; test: Cell viability assay (SRB): sensitization of OVCAR-5 cells to FK866; format: cell-based; details: for combination index (CI) with FK866: 0.3 µM nicotinic acid in medium; for cell viability, single-agent treatment: 72 h, 100 nM FK866 alone or 1 mM 2-HNA alone
Description: The first assay that we performed to test the putative NAPRT inhibitors was based on the principle that NAPRT-expressing OVCAR-5 cells are resistant to FK866 whereas the simultaneous chemical inhibition of NAPRT with 2-HNA renders the cells sensitive to the NAMPT inhibitor due to the cooperation between FK866 and 2-HNA in depleting the intracellular NAD pool. […] Thus, 2-HNA was used throughout the study as a positive control in our cell viability assay and any test compound resembling its activity was considered a potential NAPRT inhibitor. It is worth mentioning that, to reflect the physiological contribution of the Preiss–Handler pathway to NAD biosynthesis, all cell-based assays that are presented in this study were performed under a nicotinic acid concentration of 0.3 µM in the cell culture medium (Figure S1).
We decided to use combination index (CI) as a measure to determine the degree of interaction between FK866 and the test compounds i.e., to identify potential new NAPRT inhibitors. A CI < 1 indicates a synergistic interaction between the test compound and FK866 in decreasing cell viability. A CI = 1 and a CI > 1 are indicative of an additive and of an antagonistic effect, respectively.
A total of 3 × 10^3 OVCAR-5 cells/well were plated in 96-well plates in the regular culture medium. 24 h later the cell medium was removed and the cells were subsequently incubated either in the regular medium that was supplemented with 0.3 µM nicotinic acid (control wells) or in the treatment medium which contained 0.3 µM nicotinic acid and combinations of 100 nM FK866, 1 mM 2-HNA, and 100 µM of test compounds. Each condition was performed in triplicate and the cells remained under treatment for a total of 72 h at 37 °C. Thereafter, the culture plates were fixed with 10% trichloroacetic acid at 4 °C for 20 min, washed with cold water, and dried overnight. The plates were stained with 0.04% sulforhodamine B (SRB) in 1% acetic acid, washed four times with 1% acetic acid to remove the unbound dye, and dried overnight. Lastly, Trizma®-base 10 mM was added to the plates and cell viability was quantified by absorbance measurements on a Tecan Infinite® 200 PRO instrument.
To quantify the extent of the interaction between FK866 and the putative NAPRT inhibitors or 2-HNA, we applied the combination index (CI) equation that is depicted below:(1) CI=mortality % A+mortality % B /mortality % A+B where: ‘A’ refers to the treatment of cells with FK866 100 nM; ‘B’ refers to the treatment of cells with the test compound 100 µM or 2-HNA 1 mM; ‘A + B’ refers to the coadministration of FK866 100 nM and the test compound at 100 µM or 2-HNA 1 mM. A synergistic interaction is evidenced by CI < 1, additive effect produces CI close to 1, whereas CI > 1 corresponds to antagonistic effect.

[2] = tested on: intracellular NAD+ levels in OVCAR-5 cells; test: Intracellular NAD+ quantification (enzyme cycling assay); format: cell-based; details: for drop in NAD+ levels / interaction with FK866 in NAD+ reduction: test compound 100 µM + 30 nM FK866, 20 h
Description: The assay that was performed on OVCAR-5 cell viability led to a set of potential NAPRT inhibitors, namely IM 29, IM 38, IM 43, IM 49, MMB-128, MMB-131, MMB-268, and MMB-312. In order to confirm that the cited compounds sensitized OVCAR-5 cells to the NAMPT inhibitor FK866 by interfering with NAD biosynthesis, we quantified the intracellular NAD^+ levels in OVCAR-5 cells after 20-h treatments with these compounds with or without FK866.
Figure 3 A subset of test compounds cooperates synergistically with FK866 in decreasing intracellular NAD^+ levels in OVCAR-5 cells. The compounds were administered to cells alone or in combination with FK866 for 20 h. Quantification of NAD^+ was performed via an enzyme cycling assay and normalized to cell lysate protein content. The results are the mean ± SD of two technical replicates with two biological replicates each. *, p < 0.05; **, p < 0.01; ***, p < 0.001 vs. the respective control, i.e., FK866-untreated control for the test compounds that were administered alone to cells, and FK866-treated control for the combinations of test compound and FK866; §, p < 0.05 versus FK866-untreated, control cells.
A total of 1 × 10^5 OVCAR-5 cells/well were plated in 24-well plates in the regular culture medium. 24 h later the cell medium was removed and the cells were cultured either in the regular medium that was supplemented with 0.3 µM nicotinic acid (control wells) or in the treatment medium (regular medium with 0.3 µM nicotinic acid and combinations of 30 nM FK866, 1 mM 2-HNA and 100 µM of test compounds). Each condition was performed in duplicate and the cells remained under treatment for a total of 20 h at 37 °C. Thereafter, the cell medium was removed and the cells were harvested and lysed with 0.6 M perchloric acid (PCA). Samples in PCA were neutralized by diluting the extracts in 100 mM sodium phosphate buffer (pH 8) and the total intracellular NAD^+ content was determined with a sensitive enzyme cycling assay that exploits the use of alcohol dehydrogenase. The obtained NAD^+ values were normalized to cell lysate protein content that was quantified by the Bradford method.

[3] = Preparation of 50 mM stock solution in DMSO; format: physicochemical
Description: As noted in the methodology section, a 50 mM stock solution in DMSO was prepared for each compound.
Compounds were obtained in mg quantity and subsequently dissolved in DMSO to prepare a 50 mM stock solution. The purity of all compounds was > 95%, as declared by vendors or collaborators.

[4] = target: T1, recombinant hNAPRT (Homo sapiens, UniProt Q6XQN6); test: hNAPRT inhibition assay (HPLC of NA and NAMN); format: biochemical; details: for pIC50: 100 µM nicotinic acid, 200 µM PRPP, 45 min at 37 °C, formation of NAMN
T1 construct: His-tag (C); made in house; host or cells: E. coli
T1 sequence (Q6XQN6 1-538): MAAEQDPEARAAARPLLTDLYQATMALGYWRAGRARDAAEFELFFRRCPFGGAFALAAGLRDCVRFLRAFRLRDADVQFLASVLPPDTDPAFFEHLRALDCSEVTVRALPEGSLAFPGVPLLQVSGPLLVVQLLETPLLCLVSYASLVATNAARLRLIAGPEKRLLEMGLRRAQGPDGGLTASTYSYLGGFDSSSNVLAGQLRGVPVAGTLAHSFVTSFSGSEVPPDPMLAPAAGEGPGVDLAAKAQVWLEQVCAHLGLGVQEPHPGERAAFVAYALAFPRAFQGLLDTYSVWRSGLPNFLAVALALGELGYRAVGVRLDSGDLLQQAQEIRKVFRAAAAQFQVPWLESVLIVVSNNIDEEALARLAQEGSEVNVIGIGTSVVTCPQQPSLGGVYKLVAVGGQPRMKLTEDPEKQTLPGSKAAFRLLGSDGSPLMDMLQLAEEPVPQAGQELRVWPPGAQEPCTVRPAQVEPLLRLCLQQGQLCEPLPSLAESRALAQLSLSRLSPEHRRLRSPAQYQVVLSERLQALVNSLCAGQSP
Description: hNAPRT was expressed in E. coli with an N-terminal His-tag and purified as described above. The enzymatic reactions were carried out at 37 °C in standard reaction mixtures containing 50 mM Tris-HCl, pH 7.4, 10 mM KCl, 2 mM MgCl2, 100 µM nicotinic acid, 200 µM PRPP, 0.1 mg/mL purified recombinant hNAPRT, and the test compound at five different concentrations ranging from 20 µM to 1000 µM.
Blank mixtures without compounds but with equal amounts of DMSO were set in parallel and their rates fixed as 100% activity. NAPRT was pre-incubated with the compounds for 5 min and reactions were started by the addition of the enzyme substrates and stopped after 45 min of incubation by heating to 85 °C for 3 min. Following centrifugation of the reaction mix, the supernatant was analyzed by HPLC by injection into a reverse-phase column (XTerra MS C18 Column, 125Å, 5 μm, 4.6 × 150 mm, Waters). The eluted species were monitored at 260 nm and the peaks of nicotinic acid and nicotinic acid mononucleotide were quantified with reference to standard curves. The percentage of nicotinic acid conversion was calculated for each reaction and the IC50 values for the active compounds were determined with GraphPad Prism 8 software (GraphPad Software, S. Diego, CA, USA).

[5] = target: T1, recombinant hNAPRT; test: hNAPRT melting temperature determination (DSF); format: binding; details: 100 μM inhibitor, 5 μM hNAPRT
Description: With the purpose to provide support to the results that were obtained in the enzymatic activity assay, the ability of the new hNAPRT inhibitors to stabilize the protein through binding was evaluated via the measurement of the hNAPRT melting temperature in the presence or absence of the inhibitors at a 100 μM concentration. The resulting Tm shifts are depicted in Figure 5. […] A plausible explanation for this outcome is that larger compounds are more likely to establish a higher number of interactions and thus result in greater stabilization of a given protein.
Figure 5 NAPRT inhibitors MMB-128 and MMB-131 directly engage recombinant hNAPRT. Differential scanning fluorimetry (DSF) was used to determine the thermal stabilization of hNAPRT protein upon inhibitor binding. Recombinant hNAPRT protein was exposed to 100 μM hNAPRT inhibitors over a defined temperature gradient and the melting temperature Tm was calculated for each compound. The data are shown as means ± standard error of the means (SEM) of two technical replicates with three biological replicates each. * p < 0.05; unpaired t-test.
The melting temperature ™ of hNAPRT was determined through the differential scanning fluorimetry (DSF) technique. Triplicates of 100 μM of each test compound and DMSO were added to a 96-well clear bottom BioRad PCR plate. Subsequently, DSF protein buffer, containing 5 μM of recombinant hNAPRT protein and 5X SPYRO® Orange (S5692, Sigma-Aldrich) in 20 mM HEPES pH 7.5, 100 mM NaCl, 10 mM Mg-acetate, and 1 mM DTT was added. The plate was sealed and exposed to a temperature gradient from 20 to 95 °C in a BioRad CFX96 Real-Time System. The fluorescence for each temperature increment was measured at 465–580 nm with an excitation wavelength of 465 nm. The DSF templates that were provided by Niesen et al. were used for data analysis followed by GraphPad Prism 8 for statistical analysis of the generated data.

[6] = test compound 100 µM + 100 nM FK866, 72 h

| Compound | cytotoxicity in combination with FK866 [1, 6] | drop in NAD+ levels [2] | pIC50 [4] | Tm shift of hNAPRT [5] | further results |
| --- | --- | --- | --- | --- | --- |
| O=C(O)c1cccnc1O [Compound 2-HNA, 2-hydroxynicotinic acid, reference compound] |  |  |  |  | cytotoxicity of co-treatment with FK866 ([1]; 1 mM 2-HNA + 100 nM FK866, 72 h): pronounced cell death; also recorded: marked cytotoxicity; combination index (CI) with FK866 ([1]; 2-HNA 1 mM + 100 nM FK866, 72 h): 0.08; cell viability, single-agent treatment [1]: withstood; drop in intracellular NAD+ concentration ([2]; 1 mM 2-HNA + 30 nM FK866, 20 h): 86% |
| O=C(/C=C/c1cccnc1)NCCCCC1CCN(C(=O)c2ccccc2)CC1 [FK866, reference compound] |  |  |  |  | cell viability, single-agent treatment [1]: withstood; decrease of intracellular NAD+ levels ([2]; 30 nM FK866 alone, 20 h): 24% |
| Cc1cc(C(=O)O)nc(N)n1 [IM 28] |  |  |  |  | solubility in DMSO [3]: could not be solubilized |
| NCc1cc2c(cc1Cl)OCO2 [IM 29] | high cytotoxicity | 42.9–56.4% | 3.80 | remained unchanged | potentiation of the effect of FK866 in reducing intracellular NAD levels ([2]; combination with FK866): more than two-fold |
| CC(Oc1ccccc1Cl)C(=O)Nc1cccc(C(=O)O)c1 (stereo not drawn) [IM 38] | less pronounced cytotoxicity | 42.9–56.4% | 3.58 | remained unchanged |  |
| COc1ccc2cc(C=O)c(O)nc2c1 [IM 43] | high cytotoxicity |  |  |  | interaction with FK866 in NAD+ reduction [2]: additive effects |
| O=C(Cn1c(=O)sc2ccccc21)Nc1cccc(C(=O)O)c1 [IM 49] | less pronounced cytotoxicity |  | 3.63 | remained unchanged | interaction with FK866 in NAD+ reduction [2]: lower degree of synergism; effect on intracellular NAD+ levels, compound alone ([2]; test compound 100 µM alone, 20 h): strongly reduced |
| CC(C)(C)C(=O)OCCCn1cc(CCCN2CC(O)C(O)C2CNC(=O)c2ccccc2)nn1 (stereo not drawn) [MMB-128] | high cytotoxicity | 42.9–56.4% |  | approximately 0.5 °C |  |
| CC(C)(C)C(=O)OCCCn1cc(CCCN2CC(O)C(O)C2Cn2cc(-c3ccccc3)nn2)nn1 (stereo not drawn) [MMB-131] | less pronounced cytotoxicity | 42.9–56.4% | 3.62 | approximately 0.5 °C |  |
| OC1CNC(Cn2cc(-c3cc(C(F)(F)F)cc(C(F)(F)F)c3)nn2)C1O (stereo not drawn) [MMB-268] | high cytotoxicity | 42.9–56.4% |  |  | inhibition of hNAPRT ([4]; data not shown): negligible inhibition |
| COc1cc(OC)cc(-c2cn(CC3NCC(O)C3O)nn2)c1 (stereo not drawn) [MMB-312] | less pronounced cytotoxicity |  |  |  | combination index (CI) with FK866 ([1]; test compound 100 µM + 100 nM FK866, 72 h, CI < 1 synergistic): 0.12; interaction with FK866 in NAD+ reduction [2]: additive effects |

Reference: publication PMC9320560, “Structure-Based Identification and Biological Characterization of New NAPRT Inhibitors” (Pharmaceuticals, 2022)
